Active and inactive are the calls of the source. The rule behind the calls is not given here.
Key:
[1] = tested on: WI-38; test: Cytotoxicity against human WI38 cells at 100 uM after 48 hrs by cell titer glo assay; type: cell-based; conditions: wi-38, 48 h
[2] = Cytotoxicity against human THP1 cells after 72 hrs by MTT assay; type: cell-based; conditions: THP-1 cells, read-out: NOAEL
[3] = tested on: Trypanosoma brucei brucei; test: Antitrypanosomal activity against Trypanosoma brucei brucei Lister 427 bloodstream forms at 10 uM after 72 hrs by resazurin-based assay; type: functional, organism-based
[4] = tested on: 786-0; test: Mitochondrial toxicity in human 786-O cells incubated for 6 hrs by mitotracker red staining based-uptake method; type: cell-based; conditions: 786-0, 6 h
[5] = tested on: A549; test: Cytotoxicity against human A549 cells at 100 uM after 48 hrs by cell titer glo assay; type: cell-based; conditions: a549, 48 h
[6] = molecular target: T1, Cytochrome P450 1A2 (Homo sapiens, UniProt P05177); test: Inhibition of human microsomal CYP1A2 expressed in baculovirus infected BTI-TN-5B1-4 cells at 10 uM incubated for 30 mins by luciferase assay; type: ADME; conditions: bti-tn-5b1-4, 0.5 h, 10 µM
T1 sequence (P05177 whole entry): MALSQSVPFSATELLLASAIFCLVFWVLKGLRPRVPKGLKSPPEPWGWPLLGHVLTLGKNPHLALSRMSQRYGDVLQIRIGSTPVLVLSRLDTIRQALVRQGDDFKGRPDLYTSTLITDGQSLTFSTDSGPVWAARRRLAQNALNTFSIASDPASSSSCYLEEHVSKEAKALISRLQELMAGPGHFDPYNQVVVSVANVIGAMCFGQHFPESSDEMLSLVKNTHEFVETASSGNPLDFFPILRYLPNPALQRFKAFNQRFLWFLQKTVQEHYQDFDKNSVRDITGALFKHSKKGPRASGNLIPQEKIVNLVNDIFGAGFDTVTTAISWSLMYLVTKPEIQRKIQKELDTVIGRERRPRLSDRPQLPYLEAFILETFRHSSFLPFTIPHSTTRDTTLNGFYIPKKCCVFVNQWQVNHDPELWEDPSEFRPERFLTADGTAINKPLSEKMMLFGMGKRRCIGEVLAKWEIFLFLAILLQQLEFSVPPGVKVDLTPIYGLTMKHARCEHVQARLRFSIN

[7] = in vitro; conditions: human, THP-1 cells
Description: Selectivity index, ratio of CC50 for human THP1 cells to EC50 for Trypanosoma brucei brucei Lister 427 bloodstream forms

[8] = tested on: Trypanosoma brucei; test: (§1) Inhibition of Trypanosoma brucei PTR1 using H2B as substrate incubated for 10 mins followed by addition of NADPH measured for 10 to 50 mins
[9] = tested on: Trypanosoma brucei brucei; test: Antitrypanosomal activity against Trypanosoma brucei brucei Lister 427 bloodstream forms after 72 hrs by resazurin-based assay; type: functional, organism-based; conditions: Lister 427, 72 h
[10] = as §1
[11] = tested on: Trypanosoma brucei brucei; test: Antitrypanosomal activity against Trypanosoma brucei brucei Lister 427 bloodstream forms assessed as synergy coefficient at 1.25 to 5 uM after 72 hrs in presence of MTX by resazurin-based assay; type: functional
[12] = tested on: Trypanosoma brucei; test: Inhibition of Trypanosoma brucei PTR1 at 50 uM using H2B as substrate incubated for 10 mins followed by addition of NADPH measured for 10 to 50 mins
[13] = molecular target: T2, Dihydrofolate reductase (Homo sapiens) (UniProt P00374); test: Inhibition of human DHFR at 50 uM using folic aid as substrate by spectrophotometric analysis
T2 sequence (whole entry): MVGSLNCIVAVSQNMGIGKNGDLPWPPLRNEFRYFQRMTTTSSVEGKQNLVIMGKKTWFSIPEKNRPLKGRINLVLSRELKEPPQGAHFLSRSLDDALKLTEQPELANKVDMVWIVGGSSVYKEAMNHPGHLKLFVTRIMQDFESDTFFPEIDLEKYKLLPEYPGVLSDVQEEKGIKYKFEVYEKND

[14] = tested on: Trypanosoma brucei; test: Inhibition of Trypanosoma brucei DHFR at 50 uM using folic aid as substrate by spectrophotometric analysis
[15] = molecular target: Thymidylate synthase (Homo sapiens) (UniProt P04818); test: Inhibition of human thymidylate synthase at 50 uM using folic aid as substrate by spectrophotometric analysis
Chain of Thymidylate synthase (Homo sapiens) (P04818 2-313 limits assumed): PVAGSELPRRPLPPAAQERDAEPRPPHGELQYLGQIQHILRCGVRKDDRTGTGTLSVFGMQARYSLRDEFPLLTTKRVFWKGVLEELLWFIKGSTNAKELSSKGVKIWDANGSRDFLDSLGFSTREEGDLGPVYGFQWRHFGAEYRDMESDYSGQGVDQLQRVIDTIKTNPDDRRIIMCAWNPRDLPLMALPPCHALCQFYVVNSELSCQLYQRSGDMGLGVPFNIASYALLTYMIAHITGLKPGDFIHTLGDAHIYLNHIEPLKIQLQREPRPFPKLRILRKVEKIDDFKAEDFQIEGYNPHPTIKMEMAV

[16] = tested on: Leishmania mexicana; test: Inhibition of Leishmania mexicana PTR1 at 50 uM using H2B as substrate incubated for 10 mins followed by addition of NADPH measured for 10 to 50 mins
[17] = tested on: Leishmania mexicana; test: Inhibition of Leishmania mexicana DHFR at 50 uM using folic aid as substrate by spectrophotometric analysis

COc1cccc(-c2oc3cc(OC)ccc3c(=O)c2O)c1
Activity [1]: Non-Toxic | MNTC at 72 h [2]: 10 µM | Activity [3]: Active | Activity [4]: Non-Toxic | Activity [5]: Non-Toxic | inhibition (INH) [6]: Not Active | selectivity ratio [7]: 8

C[C@@H]1O[C@@H](OC[C@H]2O[C@@H](Oc3c(-c4ccc(O)c(O)c4)oc4cc(O)cc(O)c4c3=O)[C@H](O)[C@@H](O)[C@@H]2O)[C@H](O)[C@H](O)[C@H]1O
inhibition [8]: inactive | IC50 [9]: < 30 µM

O=c1c(O)c(-c2ccc(O)cc2)oc2cc(O)cc(O)c12 [KAEMPFEROL]
IC50 [10]: 28 µM | IC50 [9]: 9 µM

COc1cc(/C=C/C(=O)O)ccc1O [FERULATE]
IC50 [9]: < 30 µM

O=c1cc(-c2ccc(O)c(O)c2)oc2cc(O[C@@H]3O[C@@H](CO)[C@H](O)[C@@H](O)[C@@H]3O)cc(O)c12
IC50 [9]: < 30 µM

COc1cc(O)c2c(=O)cc(-c3ccccc3)oc2c1 [TECHTOCHRYSIN]
IC50 [9]: < 30 µM

O=c1cc(-c2ccccc2)oc2cc(O)cc(O)c12 [CHRYSIN]
IC50 [9]: < 30 µM

O=c1cc(-c2ccccc2)oc2ccccc12 [FLAVONE]
IC50 [9]: < 30 µM

COc1cccc(/C=C/C(=O)O)c1
IC50 [9]: < 30 µM

COc1ccc2oc(-c3ccc(OC)c(OC)c3)c(O)c(=O)c2c1
Activity [1]: Non-Toxic | CI [11]: >1 | MNTC at 72 h [2]: 10 µM | Activity [3]: Active | Activity [4]: Non-Toxic | Activity [5]: Non-Toxic | inhibition (INH) [6]: Not Active | selectivity ratio [7]: 5

COc1cc(OC)c2c(=O)cc(-c3ccccc3)oc2c1 [CHRYSIN DIMETHYL ETHER]
IC50 [9]: < 30 µM

O=C(O)/C=C/c1ccc(O)c(O)c1 [CAFFEIC ACID]
IC50 [9]: < 30 µM

O=c1c(O)c(-c2ccccc2O)oc2cc(O)cc(O)c12 [DATISCETIN]
IC50 [10]: 76.9 µM | IC50 [9]: 27 µM

O=c1c(O)c(-c2cccc(O)c2)oc2ccccc12
inhibition [12]: 35% | Activity [1]: Non-Toxic | inhibition [13]: < 30% | MNTC at 72 h [2]: 20 µM | Activity [3]: Active | inhibition [14]: 42 to 43% | Activity [4]: Non-Toxic | inhibition [15]: inactive | Activity [5]: Non-Toxic | inhibition [16]: 35% | inhibition (INH) [6]: Not Active | inhibition [17]: 42 to 43% | selectivity ratio [7]: 4 | EC50 [9]: 5.18 µM

COc1ccc([C@@H]2CC(=O)c3c(O)cc(O)cc3O2)cc1O [HESPERETIN]
IC50 [9]: < 30 µM

COc1cc(-c2oc3cc(O)cc(O)c3c(=O)c2O)ccc1O [ISORHAMNETIN]
IC50 [10]: 13.9 µM | IC50 [9]: 11.2 µM

O=c1c(O)c(-c2ccccc2)oc2ccccc12 [FLAVONOL]
IC50 [10]: 12.8 µM | IC50 [9]: 9.1 µM

O=C(O)/C=C/c1ccccc1O [O-COUMARIC ACID]
IC50 [9]: < 30 µM

COc1cccc(-c2oc3ccc(OC)cc3c(=O)c2O)c1
inhibition [12]: 4% | Activity [1]: Non-Toxic | CI [11]: >1 | MNTC at 72 h [2]: 10 µM | Activity [3]: Active | Activity [4]: Non-Toxic | Activity [5]: Non-Toxic | inhibition [16]: inactive | inhibition (INH) [6]: Not Active | selectivity ratio [7]: 7

O=C1CC(c2ccc(O)cc2)Oc2cc(O)cc(O)c21 (stereo not drawn)
IC50 [9]: < 30 µM

O=c1c(O)c(-c2ccc(O)c(O)c2)oc2ccc(O)cc12
Activity [1]: Non-Toxic | inhibition [13]: < 30% | MNTC at 72 h [2]: 10 µM | Activity [3]: Active | inhibition [14]: < 25% | Activity [4]: Non-Toxic | inhibition [15]: inactive | Activity [5]: Non-Toxic | inhibition (INH) [6]: Not Active | inhibition [17]: < 25% | selectivity ratio [7]: 6 | EC50 [9]: 1.36 µM

O=C(O)c1cc(O)c(O)c(O)c1 [GALLIC ACID]
IC50 [9]: < 30 µM

— ChEMBL document CHEMBL4431321, “Profiling of Flavonol Derivatives for the Development of Antitrypanosomatidic Drugs” (J Med Chem, 2016)
